The source of these data is ChEMBL document CHEMBL2346553, “Synthesis and evaluation of non-dimeric HCV NS5A inhibitors” (Bioorg Med Chem Lett, 2013).

By EC50 is commonly meant the concentration at which the effect is half-maximal. Read a high EC50 as a need for much substance. In general, EC90 refers to the concentration at which the effect reaches the 90% level. As usually defined, the IC50 is the midpoint of a concentration-inhibition curve. Broadly, the IC90 is the concentration needed for an effect of 90%. A lower IC90 goes with greater potency.

Data set [1] in a line: in vitro. The conditions noted are these: human, HuH7 cells.
A short description of data set [2]: in vitro. The note with it: chlorocebus sabaeus, Vero cells.
Data set [3] in a line: in vitro. The note with it: human, CEM cells.
A short description of data set [4]: in vitro. The note with it: human, pbmc.
A further data set relates to Hepatitis C virus. Put plainly: microbe, parasite or virus in culture. The note with it: genotype 1b, Huh-7.
The next data set deals with Cytochrome P450 2D6 (Homo sapiens, UniProt P10635).
Chain of Cytochrome P450 2D6 (P10635 whole entry): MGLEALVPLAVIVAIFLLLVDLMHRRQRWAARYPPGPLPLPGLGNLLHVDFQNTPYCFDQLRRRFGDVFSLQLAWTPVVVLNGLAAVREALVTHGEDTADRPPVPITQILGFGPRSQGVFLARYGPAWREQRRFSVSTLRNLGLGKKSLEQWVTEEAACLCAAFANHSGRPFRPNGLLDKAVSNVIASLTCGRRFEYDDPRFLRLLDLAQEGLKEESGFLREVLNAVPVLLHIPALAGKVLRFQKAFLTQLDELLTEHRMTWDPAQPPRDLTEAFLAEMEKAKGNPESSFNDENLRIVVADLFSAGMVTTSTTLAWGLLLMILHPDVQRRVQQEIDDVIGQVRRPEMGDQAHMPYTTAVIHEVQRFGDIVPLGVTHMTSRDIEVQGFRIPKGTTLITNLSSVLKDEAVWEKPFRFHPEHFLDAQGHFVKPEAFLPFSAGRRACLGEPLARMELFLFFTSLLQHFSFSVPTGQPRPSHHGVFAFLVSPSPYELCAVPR
Another data set has as its target Cytochrome P450 2C9 (Homo sapiens, UniProt P11712).
The next data set deals with T1, Cytochrome P450 1A2 (Homo sapiens, UniProt P05177).
T1 sequence (P05177 whole entry): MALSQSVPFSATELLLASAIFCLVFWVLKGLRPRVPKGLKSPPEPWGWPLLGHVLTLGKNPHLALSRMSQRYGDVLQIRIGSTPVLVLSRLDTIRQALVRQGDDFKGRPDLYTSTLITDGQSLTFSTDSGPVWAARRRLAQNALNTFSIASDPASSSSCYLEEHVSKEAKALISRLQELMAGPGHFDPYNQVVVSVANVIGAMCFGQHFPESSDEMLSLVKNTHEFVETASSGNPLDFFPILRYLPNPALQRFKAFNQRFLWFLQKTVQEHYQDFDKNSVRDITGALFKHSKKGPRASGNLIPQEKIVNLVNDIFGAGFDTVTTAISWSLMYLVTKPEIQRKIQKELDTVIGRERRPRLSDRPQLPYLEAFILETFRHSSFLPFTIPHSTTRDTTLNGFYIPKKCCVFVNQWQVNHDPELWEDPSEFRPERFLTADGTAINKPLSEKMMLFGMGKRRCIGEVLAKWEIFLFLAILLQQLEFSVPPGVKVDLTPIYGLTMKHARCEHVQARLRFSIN

Another data set has as its target Cytochrome P450 3A4 (Homo sapiens, UniProt P08684).
Another data set has as its system Vero. The conditions noted are these: chlorocebus sabaeus.
The next data set relates to CCRF-CEM. The note with it: human.
For a further data set, the system named is PBMC. The conditions noted are these: human.
For another data set, the target named is CYP2D6 (Homo sapiens, UniProt P10635). Put plainly: in vitro.
Chain of CYP2D6 (P10635 whole entry): as the sequence (P10635 whole entry) above
The next data set addresses CYP2C9 (Homo sapiens, UniProt P11712). The experiment in a line: in vitro.
In a further data set the target is T2, CYP1A2 (Homo sapiens, UniProt P05177).
T2 sequence (P05177 whole entry): T1 sequence (P05177 whole entry)
Put plainly: in vitro.

A further data set has as its target CYP3A4 (Homo sapiens, UniProt P08684). The experiment in a line: in vitro.

Chain of CYP3A4 (P08684 whole entry): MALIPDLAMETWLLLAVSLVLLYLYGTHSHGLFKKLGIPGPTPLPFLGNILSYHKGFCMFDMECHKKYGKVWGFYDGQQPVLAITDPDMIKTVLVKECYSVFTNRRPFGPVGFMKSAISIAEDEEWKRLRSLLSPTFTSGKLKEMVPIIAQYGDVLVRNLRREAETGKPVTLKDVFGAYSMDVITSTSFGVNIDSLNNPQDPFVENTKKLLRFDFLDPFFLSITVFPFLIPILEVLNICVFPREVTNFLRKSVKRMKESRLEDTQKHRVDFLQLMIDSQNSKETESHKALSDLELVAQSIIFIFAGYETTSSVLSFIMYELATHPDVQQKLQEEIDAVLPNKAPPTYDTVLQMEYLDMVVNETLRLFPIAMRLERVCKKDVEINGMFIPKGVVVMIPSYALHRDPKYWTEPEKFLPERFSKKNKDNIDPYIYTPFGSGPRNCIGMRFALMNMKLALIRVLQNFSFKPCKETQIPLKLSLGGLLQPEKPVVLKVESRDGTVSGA
Chain of Cytochrome P450 3A4 (P08684 whole entry): as above
Chain of Cytochrome P450 2C9 (P11712 whole entry): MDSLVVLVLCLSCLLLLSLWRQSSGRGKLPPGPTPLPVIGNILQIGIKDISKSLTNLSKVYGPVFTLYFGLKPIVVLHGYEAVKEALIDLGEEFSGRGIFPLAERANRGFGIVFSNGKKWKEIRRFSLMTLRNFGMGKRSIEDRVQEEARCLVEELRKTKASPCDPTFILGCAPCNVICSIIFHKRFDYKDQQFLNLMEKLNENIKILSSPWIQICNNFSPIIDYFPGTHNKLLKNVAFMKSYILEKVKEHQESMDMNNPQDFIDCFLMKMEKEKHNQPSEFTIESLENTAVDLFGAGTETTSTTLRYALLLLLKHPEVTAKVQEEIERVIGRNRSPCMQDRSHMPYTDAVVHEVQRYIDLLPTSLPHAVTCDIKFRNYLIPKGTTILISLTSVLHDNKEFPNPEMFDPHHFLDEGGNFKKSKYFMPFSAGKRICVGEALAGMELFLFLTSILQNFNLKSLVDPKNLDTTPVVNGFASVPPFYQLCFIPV
Chain of CYP2C9 (P11712 whole entry): as above

Regarding `COC(=O)N[C@H](C(=O)N1CCC[C@H]1c1ncc(-c2ccc(-c3ccc(O)cc3)cc2)[nH]1)C(C)C`, the CC50 in “in vitro [1]” is > 1 µM; in “in vitro [2]”, 13 µM; in “in vitro [3]”, 55 µM; in the data set “in vitro [4]”, 70 µM. Moreover, in the data set with Hepatitis C virus, the EC50 was 0.005 µM. Further, the 90% effect level in the data set with Hepatitis C virus (EC90) was put at 0.017 µM.
Turning to `COC(=O)N[C@H](C(=O)N1CCC[C@H]1c1ncc(-c2ccc(-c3ccc(OC(F)(F)F)cc3)cc2)[nH]1)C(C)C`, the CC50 in the data set “in vitro [1]” was > 1 µM; in “in vitro [2]”, 10 µM; in “in vitro [3]” it was 10 µM; in “in vitro [4]”, 11 µM. The EC50 in the data set on Hepatitis C virus is > 0.1 µM.
As for `COC(=O)N[C@H](C(=O)N1CCC[C@H]1c1ncc(-c2ccc(-c3ccccc3C(F)(F)F)cc2)[nH]1)C(C)C`, the CC50 in the data set “in vitro [1]” was > 1 µM; in the data set “in vitro [2]” it was 13 µM; in the data set “in vitro [3]”, 75 µM; in the data set “in vitro [4]” it was 24 µM. Besides, the EC50 in the data set with Hepatitis C virus is > 0.1 µM.
With `COC(=O)N[C@H](C(=O)N1CCC[C@H]1c1ncc(-c2ccc(N=[N+]=[N-])cc2)[nH]1)C(C)C`, the IC50 against Cytochrome P450 2D6 is > 100 µM; on Cytochrome P450 2C9, > 100 µM; on Cytochrome P450 1A2, > 100 µM; against Cytochrome P450 3A4 it was 5.1 µM. The CC50 was > 100 µM in the data set with Vero, > 100 µM in the data set on CCRF-CEM, > 100 µM in the data set on PBMC and > 1 µM in the data set “in vitro [1]”. The IC90 was > 100 µM against CYP2D6, > 100 µM on CYP2C9, > 100 µM on CYP1A2 and 96.1 µM against CYP3A4. For the same molecule, a half-maximal response in the data set on Hepatitis C virus (EC50) required 0.008 µM. In the data set on Hepatitis C virus, this molecule had an EC90 of 0.052 µM.
Take `COC(=O)N[C@H](C(=O)N1CCC[C@H]1c1nc(-c2ccc(-c3ccc(CO)cc3)cc2)c[nH]1)C(C)C`: the concentration for half-maximal inhibition (IC50) against Cytochrome P450 2D6 was > 100 µM; at Cytochrome P450 2C9, 31.2 µM; at Cytochrome P450 1A2, 56.7 µM; on Cytochrome P450 3A4, 6.9 µM. In addition, the CC50 is 59 µM with Vero, 67 µM in the data set on CCRF-CEM, > 100 µM in the data set with PBMC and > 1 µM in the data set “in vitro [1]”. For the same molecule, the IC90 at CYP2D6, on CYP2C9, against CYP1A2 and on CYP3A4 was > 100 µM each time. Besides, it took 0.002 µM to reach a half-maximal effect in the data set on Hepatitis C virus (EC50). In the data set on Hepatitis C virus, this molecule came in with an EC90 of 0.009 µM.
With `COC(=O)N[C@H](C(=O)N1CCC[C@H]1c1ncc(-c2ccc(-c3cccc(C(F)(F)F)c3)cc2)[nH]1)C(C)C`, the CC50 is > 1 µM in “in vitro [1]”, 12 µM in “in vitro [2]”, 32 µM in the data set “in vitro [3]” and 44 µM in the data set “in vitro [4]”. For the same molecule, the EC50 in the data set with Hepatitis C virus is > 0.1 µM.
For the molecule `COC(=O)N[C@H](C(=O)N1CCC[C@H]1c1nc(-c2ccc(-c3ccc(C(F)(F)F)cc3)cc2)c[nH]1)C(C)C`, the IC50 amounted to 62.1 µM at Cytochrome P450 2D6, 9.1 µM at Cytochrome P450 2C9, 82.9 µM at Cytochrome P450 1A2 and 6.5 µM against Cytochrome P450 3A4. For the same molecule, the CC50 is 14 µM in the data set on Vero, 12 µM in the data set with CCRF-CEM, > 100 µM in the data set on PBMC and > 1 µM in “in vitro [1]”. Further, the IC90 on CYP2D6, against CYP2C9, against CYP1A2 and against CYP3A4 was > 100 µM in each case. This molecule registered an EC50 with Hepatitis C virus of 0.0046 µM. In the data set on Hepatitis C virus, it took 0.0096 µM to reach the 90% level (EC90).
With `COC(=O)N[C@H](C(=O)N1CCC[C@H]1c1nc(Br)c(-c2ccc(N=[N+]=[N-])cc2)[nH]1)C(C)C`, the IC50 against Cytochrome P450 2D6 was found to be 50.5 µM; against Cytochrome P450 2C9, 50.5 µM; at Cytochrome P450 1A2, 80.9 µM; on Cytochrome P450 3A4 it was 1.5 µM. The CC50 is 16 µM in the data set on Vero, 52 µM in the data set with CCRF-CEM, 35 µM in the data set on PBMC and > 1 µM in “in vitro [1]”. The IC90 was > 100 µM against CYP2D6, > 100 µM against CYP2C9, > 100 µM against CYP1A2 and 46.1 µM against CYP3A4. The molecule also displayed an EC50 in the data set with Hepatitis C virus of 0.0007 µM. The same molecule yielded an EC90 with Hepatitis C virus of 0.0029 µM.
